Laboratory results: patent US9642922B2, “Caspase-triggered nano-aggregation probes and methods of use” (The Board of Trustees of the Leland Stanford Junior …, priority 2013, dated 2017)
Numbered stars: 1 amine (or outer) side, 2 acyl side, 3 side chain; on linkers, the order of the positions; unused ones are H or OH. Square brackets hold non-standard residues; d marks the D form. Peptide text beside a SMILES is read from it. * marks the point of attachment. DOTA = O=C(O)CN1CCN(CC(=O)O)CCN(CC(=O)*)CCN(CC(=O)O)CC1; X1 = O=C(C1CSC(c2nc3ccc(N[*:1])cc3s2)=N1)[*:2]; X2 = N#Cc1ccc2cc(OCCCN*)ccc2n1; SEt = CCS*

What was measured:
[1] = target: T1, recombinant human caspase-7 (Homo sapiens, UniProt P55210); test: HPLC enzyme specificity assay of C-SNAF, caspase-7; type: biochemical; details: 25 μM probe, 0.735 μg/ml enzyme
T1 construct: purchased Calbiochem; host or cells: E. coli
Method: The specificity of C-SNAF towards other representative cysteine proteases such as caspase-7, caspase-9, cathepsin B, and legumain was examined.
Caspase (human, recombinant from E. coli) assays were performed for caspase-3 (4.9×10^−3 U; 7.35×10^−4 mg, Sigma), −7 (18.3 U; 7.35×10^−4 mg, Calbiochem), and −9 (0.3 U; 7.35×10^−4 mg, Calbiochem). All caspase assays were conducted in caspase buffer with 50 mM HEPES, 100 mM NaCl, 1 mM EDTA, 10 mM TCEP, 10% glycerol, and 0.1% CHAPS at pH 7.4. Cathepsin B (human liver; 0.27 U; 7.35×10^−4 mg, Calbiochem) and Legumain (human, recombinant from mouse myeloma cell line; >250 pmol/min/μg; 7.35×10^−4 mg, R&D Systems) were conducted in reaction buffer with 50 mM sodium acetate, 50 mM NaCl, 0.5 mM EDTA and 10 mM TCEP at pH 5.5. C-SNAF was diluted in the respective enzyme reaction buffer (25 μM, 1 mL) and remained at room temperature for 10 min, to which was then added the respective enzymes. Reactions were performed at 37° C., and monitored by HPLC hourly. The percentage conversion of the reaction was calculated based on the percentage of peak area of C-SNAF-cycl in the HPLC trace at 675 nm UV detection, which indicated the efficacy of enzyme cleavage of C-SNAF.

[2] = Blood circulation and elimination in healthy nude mice; details: 5 nmol i.v.
HeLa cells = test: ICP-MS cellular uptake of Gd in HeLa cells; type: cell-based, human; details: 250 μM probe, 24 h
Method: The cellular uptake of Gd was studied by inductively-coupled plasma mass spectrometry (ICP-MS) analysis of the amount of Gd in viable and apoptotic cells after incubation with probe 15 (50-250 μM) for 24 h. […] This uptake enhancement was inhibitable by Z-VAD-fmk (50 μM), confirming the caspase-3-dependent accumulation of probe 15 in apoptotic cells.

subcutaneous HeLa tumors = test: In vivo MR imaging of doxorubicin-treated HeLa tumors; design: species or system mouse
Method: Evaluation of activatable contrast agent probe 15 for MR imaging of caspase-3 activity in vivo was performed in nude mice bearing subcutaneous HeLa tumors. Tumors were implanted and grown for 10-15 days before receiving intratumoral injections of two doses of 0.2 mg doxorubicin separated by 2 days. Probe 15 or 1-ctrl (19) (0.1 mmol kg^−1) was injected intravenously the day before treatment (baseline) and four days post-treatment (treated). Spin-echo T1-weighted multislice MR images at 1 T were recorded before (pre-contrast) and every 4 min after contrast agent administration (post-contrast), and scanning was carried out for 4 h post-contrast for each mouse. Much brighter MR signals (T1 contrast) were observed 40 and 120 min after injection with probe 15 in treated tumors as compared to that in baseline tumors (FIG. 29A), or in treated tumors with 1-ctrl (19) (FIG. 29B).
In vivo MR imaging was performed on an Aspect M2 1T permanent magnet (Aspect Imaging, Shoham, Israel) using a 40 mm Transmit/Receive mouse body coil. During imaging, the animals were anaesthetized with isofluorane and their respiration and body temperature were constantly monitored. Intravenous contrast injection at 0.1 mmol/kg concentration was administered in a 100 μL volume for every imaging session. Multi-slice (312 μm in-plane, 12 slices with 1 mm thickness) T1-weighted spin echo images (TE/TR=8.9/250 ms, matrix 128×128, FOV=40 mm, NEX=6) were acquired, one before contrast injection and then every 4 min up to 4 h after contrast injection. A 1 mM Dotarem reference tube was inserted in the field of view to enable inter-session variability correction during post-processing. Each animal underwent two imaging session; one before DOX treatment (baseline), and one after DOX treatment (treated).
Acquired MR data were transferred as DICOM images to an offline workstation and ImageJ (NIH) was used for post processing and quantitative image analysis. This consisted of manual segmentation of tumor ROI for each slice, slice-wise normalization of mean tumor signal intensity with the 1 mM Dotarem reference standard to account for inter-session variability, followed by combining these normalized, slice-wise values to generate mean volumetric tumor signal intensities (SI) for each time point.
Signal enhancement was calculated at each time point as the difference between the tumor SI at that time point and the tumor SI in the pre-contrast (t=0) dataset. SE(t)=SI(t)−SI(t=0); for each mouse, for every session
This metric was used to quantify the difference in SE between the baseline (before DOX treatment) session and the treated session for each mouse, as a means to tease out the difference between the two contrast agents, probe 1 and 1-cntl (19) over the time course of the imaging session. % D(t)=[SE(t,treated)−SE(t,baseline)]/SE(t,baseline); for each mouse.

caspase-3 = target: T2, caspase-3 (Homo sapiens, UniProt P42574); test: T1 measurement of probe 15 with caspase-3; type: biochemical; design: purchased Sigma; host or cells: E. coli; details: probe 200 μM
T2 sequence (P42574 29-175 limits assumed): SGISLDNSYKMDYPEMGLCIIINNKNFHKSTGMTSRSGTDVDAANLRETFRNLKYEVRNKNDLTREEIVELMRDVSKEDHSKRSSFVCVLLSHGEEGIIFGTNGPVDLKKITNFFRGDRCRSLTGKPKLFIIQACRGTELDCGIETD
T2 sequence (P42574 176-277 limits assumed): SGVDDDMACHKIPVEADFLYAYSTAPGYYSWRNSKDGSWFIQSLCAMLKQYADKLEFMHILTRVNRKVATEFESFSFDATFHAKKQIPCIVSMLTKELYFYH
Method: The enzyme specificity of probe 15 was studied by measuring the T1 value resulting from probe incubation (208 μM) with any of five relevant subcellular proteases (caspase-3, -7, -9, cathepsin B and legumain) in enzyme buffer. […] The reduced T1 value in solution was inhibited by the caspase inhibitor Z-VAD-fmk (50 μM).
Caspase (human, recombinant from E. coli) assays were performed for caspase-3 (4.9×10^−3 U; 7.35×10^−4 mg, Sigma), −7 (18.3 U; 7.35×10^−4 mg, Calbiochem), and −9 (0.3 U; 7.35×10^−4 mg, Calbiochem). All caspase assays were conducted in caspase buffer with 50 mM HEPES, 100 mM NaCl, 1 mM EDTA, 10 mM TCEP, 10% glycerol, and 0.1% CHAPS at pH 7.4.

T1 sequence (P55210 24-198 limits assumed): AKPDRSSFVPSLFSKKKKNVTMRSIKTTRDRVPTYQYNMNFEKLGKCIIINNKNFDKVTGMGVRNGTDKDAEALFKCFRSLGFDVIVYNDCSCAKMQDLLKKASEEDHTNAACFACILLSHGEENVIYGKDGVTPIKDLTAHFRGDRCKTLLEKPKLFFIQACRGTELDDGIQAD
T1 sequence (P55210 207-303 limits assumed): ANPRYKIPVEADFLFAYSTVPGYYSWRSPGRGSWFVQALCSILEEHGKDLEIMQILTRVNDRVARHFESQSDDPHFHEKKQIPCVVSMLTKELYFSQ

lowest caspase-3 concentration detected by T1 value measurements (caspase-3) [nM]	SMILES	selectivity of activation by caspase-7 [1]	blood half-life [2] [h]	time of nearly complete elimination after administration [2] [h]	cellular uptake of Gd in STS-treated versus non-treated cells (HeLa cells) [fold]	time of maximum SI enhancement in treated tumors after administration (subcutaneous HeLa tumors; 0.1 mmol kg^−1 i.v.) [min]	% difference in tumor SI enhancement, treated versus baseline (subcutaneous HeLa tumors; 20 min) [%]	% difference in tumor SI enhancement, treated versus baseline (subcutaneous HeLa tumors; 120 min) [%]	SI enhancement in treated mice higher than with 1-ctrl (19) (subcutaneous HeLa tumors; 120 min after injection) [%]	Gd uptake in tumors (ICP-MS) (subcutaneous HeLa tumors; mouse, in vivo)
	CCSSC[C@@H](NC(=O)[C@H](CC(=O)O)NC(=O)[C@@H](NC(=O)[C@H](CCC(=O)O)NC(=O)[C@H](CC(=O)O)NC(C)=O)C(C)C)C(=O)N[C@@H](CCCCNC(=O)CCCCCN1C(=CC=CC=CC2=[N+](CC)c3ccc4c(S(=O)(=O)[O-])cc(S(=O)(=O)O)cc4c3C2(C)C)C(C)(C)c2c1ccc1c(S(=O)(=O)O)cc(S(=O)(=O)O)cc21)C(=O)Nc1ccc2nc(C3=N[C@@H](C(=O)NCCCOc4ccc5nc(C#N)ccc5c4)CS3)sc2c1 [C-SNAF]	high selectivity of the probe toward effector caspases-3 and -7	1.0 ± 0.45	≤ 12						
5	CCSSCC(NC(=O)C(CC(=O)O)NC(=O)C(NC(=O)C(CCC(=O)O)NC(=O)C(CC(=O)O)NC(C)=O)C(C)C)C(=O)NC(CCCCNC(=O)CN1CCN(CC(=O)[O-])CCN(CC(=O)[O-])CCN(CC(=O)[O-])CC1)C(=O)Nc1ccc2nc(C3=NC(C(=O)NCCCOc4ccc5nc(C#N)ccc5c4)CS3)sc2c1.[Gd+3] (stereo not shown) [probe 15] (Ac-DEVDC(SEt)K(DOTA)[X1]-X2; configuration not given here)				6.6	40	62	169	77	higher Gd level in treated tumors
